In patent US20240317721A1, “PYRAZOLYL DERIVATIVES AS INHIBITORS OF THE KRAS MUTANT PROTEIN” (NOVARTIS AG, priority 2021, published 2024):

target: KRasG12C (M1-K169, biotinylated on the N-terminus) (Homo sapiens (Human), UniProt P01116, G12C); experiment: Covalent competition assay: scintillation proximity assay (SPA) quantifying covalent modification of KRASG12C; assay type: binding; settings: competition with radiolabeled covalent probe (Compound B/Compound A), 2 hours incubation, 10 nM KRasG12C
How it was run: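 Test compounds compete with a radiolabeled covalent probe for modification of N-terminally biotinylated KRasG12C(M1-K169):GDP, final 10 nM protein, 25 nM radio-ligand, 475 nM unlabelled ligand, 2 h with agitation in 20 mM Tris-HCl pH 7.5, 150 mM NaCl, 0.1 mM MgCl2, 0.01% Tween-20.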

IC50 | Structure (SMILES)
697 nM | C=CC(=O)N1CC2(CC(n3nc(N4CCN(C5CCOC5)CC45CCC5)c(-c4c(Cl)c(C)cc5[nH]ncc45)c3C)C2)C1 (single isomer, unassigned) [Example 132a, 1-(6-(4-(5-chloro-6-methyl-1H-indazol-4-yl)-5-methyl-3-(8-(tetrahydrofuran-3-yl)-5,8-diazaspiro[3.5]nonan-5-yl)-1H-pyrazol-1-yl)-2-azaspiro[3.3]heptan-2-yl)prop-2-en-1-one]
888 nM | C=CC(=O)N1CC2(CC(n3nc(N4CC[C@@H](CN5CCC6(C5)CN(C(C)=O)C6)CC4(C)C)c(-c4c(Cl)c(Cl)cc5[nH]ncc45)c3C)C2)C1 (single isomer, unassigned) [Example 317a]
> 5000 nM | C=CC(=O)N1CC2(CC(n3nc(N4CC=C(CN5CCOCC5)CC4(C)C)c(-c4c(Cl)c(Cl)cc5[nH]ncc45)c3C)C2)C1 (single isomer, unassigned) [Example 220a, 1-(6-(4-(5,6-dichloro-1H-indazol-4-yl)-3-(2,2-dimethyl-4-(morpholinomethyl)-3,6-dihydropyridin-1(2H)-yl)-5-methyl-1H-pyrazol-1-yl)-2-azaspiro[3.3]heptan-2-yl)prop-2-en-1-one]
1100 nM | C=CC(=O)N1CC2(CC(n3nc(N4CCC(CN5CC6COCC6C5)CC4(C)C)c(-c4c(Cl)c(Cl)cc5[nH]ncc45)c3C)C2)C1 (single isomer, unassigned) [Example 226b, 1-(6-(4-(5,6-dichloro-1H-indazol-4-yl)-3-(2,2-dimethyl-4-((tetrahydro-1H-furo[3,4-c]pyrrol-5(3H)-yl)methyl)piperidin-1-yl)-5-methyl-1H-pyrazol-1-yl)-2-azaspiro[3.3]heptan-2-yl)prop-2-en-1-one]
881 nM | C=CC(=O)N1CC2(CC(n3nc(N4CCC(N(CC)C5COC5)CC4(C)C)c(-c4c(Cl)c(Cl)cc5[nH]ncc45)c3C)C2)C1 (single isomer, unassigned) [Example 61a, 1-(6-(4-(5,6-dichloro-1H-indazol-4-yl)-3-(4-(ethyl(oxetan-3-yl)amino)-2,2-dimethylpiperidin-1-yl)-5-methyl-1H-pyrazol-1-yl)-2-azaspiro[3.3]heptan-2-yl)prop-2-en-1-one]
86 nM | C=CC(=O)N1CC2(CC(n3nc(N4CCN(C(C)=O)CC4(C)C)c(-c4c(C)c(C)cc5[nH]ncc45)c3C)C2)C1 (single isomer, unassigned) [Example 1a, 1-(6-(3-(4-Acetyl-2,2-dimethylpiperazin-1-yl)-4-(5,6-dimethyl-1H-indazol-4-yl)-5-methyl-1H-pyrazol-1-yl)-2-azaspiro[3.3]heptan-2-yl)prop-2-en-1-one]
4900 nM | C=CC(=O)N1CC2(CC(n3nc(N4CCC(CN5CC6COCC6C5)CC4(C)C)c(-c4c(Cl)c(Cl)cc5[nH]ncc45)c3C)C2)C1 (single isomer, unassigned) [Example 227a, 1-(6-(4-(5,6-dichloro-1H-indazol-4-yl)-3-(2,2-dimethyl-4-((tetrahydro-1H-furo[3,4-c]pyrrol-5(3H)-yl)methyl)piperidin-1-yl)-5-methyl-1H-pyrazol-1-yl)-2-azaspiro[3.3]heptan-2-yl)prop-2-en-1-one]
846 nM | C=CC(=O)N1CC2(CC(n3nc(N4CCN(C5COC5)C5COCC54)c(-c4c(Cl)c(C)cc5[nH]ncc45)c3C)C2)C1 (single isomer, unassigned) [Example 136a, 1-(6-(4-(5-chloro-6-methyl-1H-indazol-4-yl)-5-methyl-3-((4aS*,7aS*)-4-(oxetan-3-yl)hexahydrofuro[3,4-b]pyrazin-1(2H)-yl)-1H-pyrazol-1-yl)-2-azaspiro[3.3]heptan-2-yl)prop-2-en-1-one]
9 nM | C=CC(=O)N1CC2(CC(n3nc(N4CC[C@@H](CN5CCN6C[C@@H](O)C[C@@H]6C5)CC4(C)C)c(-c4c(Cl)c(Cl)cc5[nH]ncc45)c3C)C2)C1 (single isomer, unassigned) [Example 287b]
